Laboratory results as given in the OligoGym collection.
HELM strings list units from the 5' end as sugar, base in round brackets, then linkage (d deoxyribose, r ribose, m 2'-O-methyl, p phosphodiester). Strings are as the collection lists them, not checked against the first reports. ss, as = sense and antisense strand; [una] = unlocked nucleic acid; [s4r] = 4'-thioribose; [fl2r] = 2'-fluoro

Details: siRNA
Note: test system not given here.

Substance	target mRNA knockdown
RNA1{r(C)p.r(G)p.r(U)p.r(A)p.r(C)p.r(G)p.r(C)p.r(G)p.r(G)p.r(A)p.r(A)p.r(U)p.r(A)p.r(C)p.r(U)p.r(U)p.r(C)p.r(G)p.r(A)p.r(T)p.r(T)}|RNA2{[s4r](U)p.[s4r](C)p.r(G)p.r(A)p.r(A)p.r(G)p.[s4r](U)p.r(A)p.[s4r](U)p.[s4r](U)p.[s4r](C)p.[s4r](C)p.r(G)p.[s4r](C)p.r(G)p.[s4r](U)p.r(A)p.[s4r](C)p.r(G)p.r(T)p.r(T)}$$$RNA1{StrandType:ss}|RNA2{StrandType:as}$	27.5%
RNA1{r(C)p.r(G)p.r(U)p.r(A)p.r(C)p.r(G)p.r(C)p.r(G)p.r(G)p.r(A)p.r(A)p.r(U)p.r(A)p.r(C)p.r(U)p.r(U)p.r(C)p.r(G)p.r(A)p.r(T)p.r(T)}|RNA2{[s4r](U)p.[s4r](C)p.r(G)p.r(A)p.r(A)p.r(G)p.r(U)p.r(A)p.r(U)p.r(U)p.r(C)p.r(C)p.r(G)p.r(C)p.r(G)p.r(U)p.r(A)p.[s4r](C)p.[s4r](G)p.r(T)p.r(T)}$$$RNA1{StrandType:ss}|RNA2{StrandType:as}$	88.8%
RNA1{r(C)p.r(G)p.r(U)p.r(A)p.r(C)p.r(G)p.r(C)p.r(G)p.r(G)p.r(A)p.r(A)p.r(U)p.r(A)p.r(C)p.r(U)p.r(U)p.r(C)p.r(G)p.r(A)p.r(T)p.r(T)}|RNA2{[s4r](U)p.[s4r](C)p.r(G)p.r(A)p.r(A)p.r(G)p.r(U)p.r(A)p.r(U)p.r(U)p.r(C)p.r(C)p.r(G)p.r(C)p.r(G)p.r(U)p.r(A)p.r(C)p.r(G)p.r(T)p.r(T)}$$$RNA1{StrandType:ss}|RNA2{StrandType:as}$	95%
RNA1{r(C)p.r(G)p.r(U)p.r(A)p.r(C)p.r(G)p.r(C)p.r(G)p.r(G)p.r(A)p.r(A)p.r(U)p.r(A)p.r(C)p.r(U)p.r(U)p.r(C)p.r(G)p.r(A)p.r(T)p.r(T)}|RNA2{[s4r](U)p.r(C)p.r(G)p.r(A)p.r(A)p.r(G)p.[s4r](U)p.r(A)p.[s4r](U)p.[s4r](U)p.r(C)p.r(C)p.r(G)p.r(C)p.r(G)p.[s4r](U)p.r(A)p.r(C)p.r(G)p.r(T)p.r(T)}$$$RNA1{StrandType:ss}|RNA2{StrandType:as}$	79.5%
RNA1{r(C)p.r(G)p.r(U)p.r(A)p.r(C)p.r(G)p.r(C)p.r(G)p.r(G)p.r(A)p.r(A)p.r(U)p.r(A)p.r(C)p.r(U)p.r(U)p.r(C)p.r(G)p.r(A)p.r(T)p.r(T)}|RNA2{m(U)p.m(C)p.m(G)p.m(A)p.m(A)p.m(G)p.r(U)p.r(A)p.r(U)p.r(U)p.r(C)p.r(C)p.r(G)p.r(C)p.r(G)p.r(U)p.r(A)p.r(C)p.r(G)p.r(T)p.r(T)}$$$RNA1{StrandType:ss}|RNA2{StrandType:as}$	10.3%
RNA1{r(C)p.r(G)p.r(U)p.r(A)p.r(C)p.r(G)p.r(C)p.r(G)p.r(G)p.r(A)p.r(A)p.r(U)p.r(A)p.r(C)p.r(U)p.r(U)p.r(C)p.r(G)p.r(A)p.r(T)p.r(T)}|RNA2{r(U)p.[s4r](C)p.r(G)p.r(A)p.r(A)p.r(G)p.r(U)p.r(A)p.r(U)p.r(U)p.[s4r](C)p.[s4r](C)p.r(G)p.[s4r](C)p.r(G)p.r(U)p.r(A)p.[s4r](C)p.r(G)p.r(T)p.r(T)}$$$RNA1{StrandType:ss}|RNA2{StrandType:as}$	68.5%
RNA1{r(C)p.r(G)p.r(U)p.r(A)p.r(C)p.r(G)p.r(C)p.r(G)p.r(G)p.r(A)p.r(A)p.r(U)p.r(A)p.r(C)p.r(U)p.r(U)p.r(C)p.r(G)p.r(A)p.r(T)p.r(T)}|RNA2{r(U)p.r(C)p.r(G)p.r(A)p.r(A)p.r(G)p.[s4r](U)p.[s4r](A)p.[s4r](U)p.[s4r](U)p.[s4r](C)p.[s4r](C)p.[s4r](G)p.r(C)p.r(G)p.r(U)p.r(A)p.r(C)p.r(G)p.r(T)p.r(T)}$$$RNA1{StrandType:ss}|RNA2{StrandType:as}$	36.5%
RNA1{r(C)p.r(G)p.r(U)p.r(A)p.r(C)p.r(G)p.r(C)p.r(G)p.r(G)p.r(A)p.r(A)p.r(U)p.r(A)p.r(C)p.r(U)p.r(U)p.r(C)p.r(G)p.r(A)p.r(T)p.r(T)}|RNA2{r(U)p.r(C)p.r(G)p.r(A)p.r(A)p.r(G)p.r(U)p.r(A)p.r(U)p.r(U)p.r(C)p.r(C)p.r(G)p.[s4r](C)p.[s4r](G)p.[s4r](U)p.[s4r](A)p.[s4r](C)p.[s4r](G)p.r(T)p.r(T)}$$$RNA1{StrandType:ss}|RNA2{StrandType:as}$	72.2%
RNA1{r(C)p.r(G)p.r(U)p.r(A)p.r(C)p.r(G)p.r(C)p.r(G)p.r(G)p.r(A)p.r(A)p.r(U)p.r(A)p.r(C)p.r(U)p.r(U)p.r(C)p.r(G)p.r(A)p.r(T)p.r(T)}|RNA2{r(U)p.r(C)p.r(G)p.r(A)p.r(A)p.r(G)p.r(U)p.r(A)p.r(U)p.r(U)p.r(C)p.r(C)p.r(G)p.m(C)p.m(G)p.m(U)p.m(A)p.m(C)p.m(G)p.r(T)p.r(T)}$$$RNA1{StrandType:ss}|RNA2{StrandType:as}$	30.8%
RNA1{r(C)p.r(G)p.r(U)p.r(A)p.r(C)p.r(G)p.r(C)p.r(G)p.r(G)p.r(A)p.r(A)p.r(U)p.r(A)p.r(C)p.r(U)p.r(U)p.r(C)p.r(G)p.r(A)p.r(T)p.r(T)}|RNA2{r(U)p.r(C)p.r(G)p.r(A)p.r(A)p.r(G)p.r(U)p.r(A)p.r(U)p.r(U)p.r(C)p.r(C)p.r(G)p.r(C)p.r(G)p.[s4r](U)p.[s4r](A)p.[s4r](C)p.[s4r](G)p.r(T)p.r(T)}$$$RNA1{StrandType:ss}|RNA2{StrandType:as}$	85.6%
RNA1{r(C)p.r(G)p.r(U)p.r(A)p.r(C)p.r(G)p.r(C)p.r(G)p.r(G)p.r(A)p.r(A)p.r(U)p.r(A)p.r(C)p.r(U)p.r(U)p.r(C)p.r(G)p.r(A)p.r(T)p.r(T)}|RNA2{r(U)p.r(C)p.r(G)p.r(A)p.r(A)p.r(G)p.r(U)p.r(A)p.r(U)p.r(U)p.r(C)p.r(C)p.r(G)p.r(C)p.r(G)p.r(U)p.r(A)p.[s4r](C)p.[s4r](G)p.r(T)p.r(T)}$$$RNA1{StrandType:ss}|RNA2{StrandType:as}$	90.2%
RNA1{r(C)p.r(U)p.[fl2r](A)p.[fl2r](A)p.r(G)p.r(C)p.r(C)p.r(U)p.r(G)p.[fl2r](U)p.r(U)p.r(U)p.r(C)p.r(U)p.r(U)p.r(C)p.r(C)p.r(U)p.r(C)p.r(T)p.r(T)}|RNA2{r(G)p.r(A)p.r(G)p.r(G)p.r(A)p.r(A)p.r(G)p.r(A)p.r(A)p.r(A)p.r(C)p.r(A)p.r(G)p.r(G)p.r(C)p.r(U)p.[fl2r](U)p.r(A)p.r(G)p.r(T)p.r(T)}$$$RNA1{StrandType:ss}|RNA2{StrandType:as}$	85%
RNA1{r(C)p.r(U)p.[fl2r](A)p.r(G)p.r(A)p.r(G)p.r(G)p.r(A)p.r(U)p.r(C)p.r(U)p.r(U)p.r(G)p.r(A)p.r(A)p.r(G)p.r(A)p.r(C)p.r(C)p.r(T)p.r(T)}|RNA2{r(G)p.r(G)p.r(U)p.r(C)p.r(U)p.r(U)p.r(C)p.r(A)p.r(A)p.r(G)p.r(A)p.r(U)p.r(C)p.r(C)p.r(U)p.r(C)p.[fl2r](U)p.r(A)p.r(G)p.r(T)p.r(T)}$$$RNA1{StrandType:ss}|RNA2{StrandType:as}$	82%
RNA1{r(C)p.r(U)p.m(C)p.r(A)p.r(A)p.r(A)p.r(U)p.m(C)p.r(A)p.r(A)p.r(G)p.r(G)p.r(C)p.r(C)p.r(G)p.r(G)p.r(A)p.r(G)p.r(U)p.r(T)p.r(T)}|RNA2{r(A)p.r(C)p.r(U)p.r(C)p.r(C)p.r(G)p.r(G)p.r(C)p.r(C)p.r(U)p.m(U)p.r(G)p.r(A)p.r(U)p.r(U)p.m(U)p.r(G)p.r(A)p.r(G)p.r(T)p.r(T)}$$$RNA1{StrandType:ss}|RNA2{StrandType:as}$	82%
RNA1{r(C)p.r(U)p.r(A)p.r(A)p.r(G)p.r(G)p.r(A)p.r(C)p.r(C)p.r(U)p.r(A)p.r(A)p.r(C)p.r(A)p.r(A)p.[una](A)p.r(G)p.[una](U)p.[una](U)p.r(U)p.r(U)}|RNA2{r(A)p.r(A)p.r(C)p.r(U)p.r(U)p.r(U)p.r(G)p.r(U)p.r(U)p.r(A)p.r(G)p.r(G)p.r(U)p.r(C)p.r(C)p.r(U)p.r(U)p.r(A)p.r(G)p.r(U)p.r(U)}$$$RNA1{StrandType:ss}|RNA2{StrandType:as}$	70%
RNA1{r(C)p.r(U)p.r(A)p.r(A)p.r(G)p.r(G)p.r(A)p.r(C)p.r(C)p.r(U)p.r(A)p.r(A)p.r(C)p.r(A)p.r(A)p.r(A)p.r(G)p.r(U)p.[una](U)p.r(U)p.r(U)}|RNA2{r(A)p.r(A)p.r(C)p.r(U)p.r(U)p.r(U)p.r(G)p.r(U)p.r(U)p.r(A)p.r(G)p.r(G)p.r(U)p.r(C)p.r(C)p.r(U)p.r(U)p.r(A)p.r(G)p.r(U)p.r(U)}$$$RNA1{StrandType:ss}|RNA2{StrandType:as}$	60%
RNA1{r(C)p.r(U)p.r(A)p.r(G)p.r(A)p.r(G)p.r(G)p.r(A)p.r(U)p.r(C)p.r(U)p.r(U)p.r(G)p.r(A)p.r(A)p.r(G)p.r(A)p.r(C)p.r(C)p.r(T)p.r(T)}|RNA2{r(G)p.r(G)p.r(U)p.r(C)p.r(U)p.r(U)p.[fl2r](C)p.r(A)p.r(A)p.r(G)p.r(A)p.r(U)p.r(C)p.r(C)p.r(U)p.r(C)p.[fl2r](U)p.r(A)p.r(G)p.r(T)p.r(T)}$$$RNA1{StrandType:ss}|RNA2{StrandType:as}$	95%
RNA1{r(C)p.r(U)p.r(C)p.m(C)p.r(C)p.m(C)p.r(A)p.r(G)p.r(U)p.m(C)p.r(U)p.r(C)p.r(U)p.r(C)p.r(U)p.m(U)p.r(A)p.r(A)p.r(A)p.r(T)p.r(T)}|RNA2{r(U)p.r(U)p.m(U)p.r(A)p.r(A)p.r(G)p.r(A)p.r(G)p.r(A)p.r(G)p.r(A)p.r(C)p.m(U)p.r(G)p.r(G)p.r(G)p.r(G)p.r(A)p.r(G)p.r(T)p.r(T)}$$$RNA1{StrandType:ss}|RNA2{StrandType:as}$	68%
RNA1{r(C)p.r(U)p.r(C)p.m(U)p.r(G)p.r(G)p.r(C)p.r(C)p.r(U)p.r(U)p.r(U)p.r(C)p.r(U)p.r(C)p.r(U)p.r(C)p.m(U)p.r(A)p.r(G)p.r(T)p.r(T)}|RNA2{r(C)p.r(U)p.r(A)p.r(G)p.r(A)p.r(G)p.r(A)p.r(G)p.r(A)p.r(A)p.r(A)p.r(G)p.r(G)p.r(C)p.m(C)p.r(A)p.r(G)p.r(A)p.r(G)p.r(T)p.r(T)}$$$RNA1{StrandType:ss}|RNA2{StrandType:as}$	45%
RNA1{r(C)p.r(U)p.r(C)p.r(A)p.r(A)p.r(A)p.r(U)p.r(C)p.r(A)p.r(A)p.r(G)p.r(G)p.r(C)p.r(C)p.r(G)p.r(G)p.r(A)p.r(G)p.r(U)p.r(T)p.r(T)}|RNA2{r(A)p.r(C)p.r(U)p.r(C)p.r(C)p.r(G)p.r(G)p.r(C)p.r(C)p.r(U)p.m(U)p.r(G)p.r(A)p.r(U)p.r(U)p.m(U)p.r(G)p.r(A)p.r(G)p.r(T)p.r(T)}$$$RNA1{StrandType:ss}|RNA2{StrandType:as}$	85%
